Measured values as given in patent US7396682B2, “Method for cell adhesion and wound healing” (Regen Biotech, Inc., priority 2000, dated 2008).
Entries after “also recorded” stand apart in the source; their conditions may differ.

B1: βig-h3 D-II: recombinant polypeptide, 2nd fas-1 domain of βig-h3, amino acids 237-377 (SEQ ID NO:24) (protein)
chain: STITNNIQQIIEIEDTFETLRAAVAASGLNTMLEGNGQYTLLAPTNEAFEKIPSETLNRILGDPEALRDLLNNHILKSAMCAEAIVAGLSVETLEGTTLEVGCSGDMLTINGKAIISNKDILATNGVIHYIDELLIPDSAK
modifications: left off: small tags and cut ends
B2: vitronectin: human plasma vitronectin (Promega), coated extracellular matrix protein (protein)
chain: DQESCKGRCTEGFNVDKKCQCDELCSYYQSCCTDYTAECKPQVTRGDVFTMPEDEYTVYDDGEEKNNATVHEQVGGPSLTSDLQAQSKGNPEQTPVLKPEEEAPAPEVGASKPEGIDSRPETLHPGRPQPPAEEELCSGKPFDAFTDLKNGSLFAFRGQYCYELDEKAVRPGYPKLIRDVWGIEGPIDAAFTRINCQGKTYLFKGSQYWRFEDGVLDPDYPRNISDGFDGIPDNVDAALALPAHSYSGRERVYFFKGKQYWEYQFQHQPSQEECEGSSLSAVFEHFAMMQRDSWEDIFELLFWGRTSAGTRQPQFISRDWHGVPGQVDAAMAGRIYISGMAPRPSLAKKQRFRHRNRKGYRSQRGHSRGRNQNSRRPSRATWLSLFSSEESNLGANNYDDYRMDWLVPATCEPIQSVFFFSGDKYYRVNLRTRRVDTVDPPYPRSIAQYWLGCPAPGHL

What was measured:
[1] = test system: HCE cells; assay: Inhibition assay of HCE cell adhesion using matrix peptides and reagents; assay type: cell-based, human; conditions: HCE cells preincubated 30 min with reagent; for inhibition of cell adhesion to fibronectin: dishes coated with 10 μg/ml fibronectin; for inhibition of cell adhesion to βig-h3: dishes coated with 10 μg/ml βig-h3
Description: In order to identify cell surface receptors involved in the cell adhesion activity of βig-h3 protein, an inhibition assay was performed using various reagents.
Initially, plastic culture dishes were coated with 10 μg/ml fibronectin, βigh3-WT or βigh3-ΔRGD. HCE cells were preincubated for 30 min in media containing 5 mM EDTA, 100 μg/ml βigh3-WT, 100 μg/ml βigh3-ΔRGD, 1 mM RGD, 1 mM RGE or 100 μg/ml fibronectin, or none of them, and then assayed for cell adhesion as in Example 1.

[2] = test system: Human corneal epithelial (HCE) cells; assay: HCE cell adhesion and spreading assay on protein-coated plates; assay type: cell-based; conditions: HCE cells on coated recombinant protein
Description: Human corneal epithelial (HCE) cells used in this assay were cultured in DMEM ([…], Gibco BRL) supplemented with 15% fetal bovine serum, Gentamicin (40 μg/ml), insulin (5 μg/ml), cholera toxin (0.1 μg/ml) and human epidermal growth factor (hEGF) at 37° C. in 5% CO2.
The cell adhesion assay was performed as follows. First, the recombinant βig-h3 proteins or other extracellular matrix proteins were let to adhere to the bottoms of 96-well microculture plates (Falcon) by incubation at 37° C. for 1 hour and blocked with PBS containing 0.2% BSA. The coated extracellular matrix proteins were human plasma vitronectin (Promega), purified human plasma fibronectin (pFN), chicken collagen types I and II (Chemicon International Inc.), bovine collagen types IV and VI (Chemicon), mouse laminin (Chemicon), and bovine serum albumin (BSA) (Sigma). Cells were trypsinized and suspended in the culture media at a density of 2×10^5 cells/ml. 0.1 ml of the cell suspension was added to each well of the plates coated with the recombinant proteins.
Following incubation at 37° C. for 1 hour, unattached cells were removed by rinsing with PBS. Attached cells were incubated for 1 hour at 37° C. in 50 mM citrate buffer, pH 5.0, containing 3.75 mM p-nitrophenol-N-acetyl 1-β-D-glycosaminide as a hexosaminidase substrate and 0.25% Triton X-100, followed by the addition of 50 mM glycine buffer, pH 10.4, containing 5 mM EDTA to block the enzyme activity. A measurement was made of absorbance at 405 nm in a Multiskan MCC/340 microplate reader.
To determine cell area as an index for cell adhesion activity, 4×10^4 cells were applied to substrates in 48-well culture plates. The attached cells were fixed weith 8% glutaraldehyde (Sigma) and then stained with 0.25% Crystal Violet (Sigma) in 20% methanol. Measurement of cell areas was performed by Image-Pro plus software (Media Cybernetics). Experiments were repeated in triplicate with 200 or 300 measurements per site for each experiment. Data is reported as the mean area at specific time points±standard error of mean.

[3] = test system: K562 cells; assay: K562 cell adhesion to coated proteins (hexosaminidase analysis); assay type: cell-based; conditions: 1 hour
Description: For another control experiment, K562 cells, known to express α5, but not α3 integrin, were used. K562 cells were inoculated onto plates coated with βigh3-WT, fibronectin, laminin, or type I collagen and incubated for 1 hour, followed by the hexosaminidase analysis.

Row | Molecule | inhibition of cell adhesion to fibronectin [1] | inhibition of cell adhesion to βig-h3 [1] | HCE cell adhesion activity [2] | adhesion of K562 cells to coated protein [3]
1 | O=C(O)CN(CCN(CC(=O)O)CC(=O)O)CC(=O)O [EDTA] | significantly inhibited | significantly inhibited | – | –
2 | O=C(O)CN(CCOCCOCCN(CC(=O)O)CC(=O)O)CC(=O)O [EGTA] | partially inhibited | partially inhibited | – | –
3 | RGD peptide: Arg-Gly-Asp peptide used at 1 mM in inhibition assay | significantly inhibited | significantly inhibited | – | –
4 | RGE peptide: RGE peptide used at 1 mM in inhibition assay | – | not inhibited | – | –
5 | B1 | – | – | equally active compared to the wild type βig-h3; also recorded: high cell attachment activity | –
6 | B2 | – | – | – | adhered
